Measurements: patent US20060046966A1, “Antipicornaviral compounds and compositions, their pharmaceutical uses, and materials for their synthesis” (Agouron Pharmaceuticals, Inc., priority 1998, published 2006)
Like-named read-outs stand apart in the source and are kept apart here.

Columns and labels:
[1] = test system: HRV (16); test: Antirhinoviral H1-HeLa cell culture assay, HRV serotype 16; assay type: cell-based; conditions: Human rhinovirus sp., H1-HeLa cells, XTT
Description: (§1) In this cell protection assay, the ability of compounds to protect cells against HRV infection was measured by the XTT dye reduction method, which is described in Weislow et al., J. Natl. Cancer Inst. 1989, vol. 81, 577-586.
(§2) H1-HeLa cells were infected with HRV-14 at a multiplicity of infection (m.o.i.) of 0.13 (virus particles/cell) or mock-infected with medium only. Infected or mock-infected cells were resuspended at 8×10^5 cells per mL, and incubated with appropriate concentrations of the compounds to be tested. Two days later, XTT/PMS was added to test plates and the amount of formazan produced was quantified spectrophotometrically at 450/650 nm. The EC50 value was calculated as the concentration of compound that increased the percentage of formazan production in compound-treated, virus-infected cells to 50% of that produced by compound-free, mock-infected cells. The 50% cytotoxic dose (CC50) was calculated as the concentration of compound that decreased the percentage of formazan produced in compound-treated, mock-infected cells to 50% of that produced by compound-free, mock-infected cells. The therapeutic index (TI) was calculated by dividing the CC50 value by the EC50 value.
(§3) All strains of human rhinovirus (HRV) for use in this assay were purchased from American Type Culture Collection (ATCC), except for HRV serotype-14 (produced from the infectious cDNA clone constructed by Dr. Robert Rueckert, Institute for Molecular Virology, University of Wisconsin, Madison, Wis.). HRV stocks were propagated and viral assays were performed in H1-HeLa cells (ATCC). Cells were grown in minimal essential medium with 10% fetal bovine serum, available from Life Technologies (Gaithersburg, Md.).
(§4) The compounds were tested against control compounds WIN 51711, WIN 52084, and WIN 54954 (obtained from Sterling-Winthrop Pharmaceuticals), Pirodavir (obtained from Janssen Pharmaceuticals), and Pleconaril (prepared according to the method described in Diana et al., J. Med. Chem 1995, vol. 38, 1355). […]

[2] = test system: HRV (10); test: Antirhinoviral H1-HeLa cell culture assay, HRV serotype 10; assay type: cell-based, human rhinovirus; conditions: Human rhinovirus sp., H1-HeLa, H1-HeLa cells, XTT
Description: as §1, §2, §3
(§5) The compounds were tested against control compounds WIN 51711, WIN 52084, and WIN 54954 (obtained from Sterling-Winthrop Pharmaceuticals), Pirodavir (obtained from Janssen Pharmaceuticals), and Pleconaril (prepared according to the method described in Diana et al., J. Med. Chem 1995, vol. 38, 1355). Antiviral data obtained for the test compounds are shown in Tables 1 and 3, where all data are for HRV serotype-14 unless otherwise noted in parentheses.

[3] = test system: HRV (38); test: Antirhinoviral H1-HeLa cell culture assay, HRV serotype 38; assay type: cell-based; conditions: Human rhinovirus sp., H1-HeLa cells, XTT
Description: as §1
as §2, with “value. […]” for “value.”

[4] = test system: HRV (13); test: Antirhinoviral H1-HeLa cell culture assay, HRV serotype 13; assay type: cell-based, human rhinovirus; conditions: Human rhinovirus sp., H1-HeLa, H1-HeLa cells, XTT
Description: as §1, §2, §3, §4

[5] = test system: HRV (39); test: Antirhinoviral H1-HeLa cell culture assay, HRV serotype 39; assay type: cell-based, human rhinovirus; conditions: Human rhinovirus sp., H1-HeLa cells, XTT
Description: as §1, §2, §3, §4

[6] = test system: HRV-14; test: Antirhinoviral H1-HeLa cell culture assay, HRV-14; assay type: cell-based, human rhinovirus; conditions: Rhinovirus B, HRV14, H1-HeLa, HRV serotype-14, H1-HeLa cells
Description: as §1, §2, §3, §5

[7] = test system: HRV (17); test: Antirhinoviral H1-HeLa cell culture assay, HRV serotype 17; assay type: cell-based, human rhinovirus; conditions: Human rhinovirus sp., H1-HeLa cells, XTT
Description: as §1, §2, §3, §4

[8] = test system: HRV (3); test: Antirhinoviral H1-HeLa cell culture assay, HRV serotype 3; assay type: cell-based, human rhinovirus; conditions: Human rhinovirus sp., H1-HeLa, H1-HeLa cells, XTT
Description: as §1, §2, §3, §4

[9] = test system: HRV (1A); test: Antirhinoviral H1-HeLa cell culture assay, HRV serotype 1A; assay type: cell-based; conditions: Human rhinovirus sp., H1-HeLa cells, XTT
Description: as §1, §2, §3, §5

[10] = test system: HRV (87); test: Antirhinoviral H1-HeLa cell culture assay, HRV serotype 87; assay type: cell-based; conditions: Human rhinovirus sp., H1-HeLa cells, XTT
Description: as §1
as §2, with “value. […]” for “value.”

[11] = molecular target: T1, rhinovirus 3C protease from HRV serotype-14 (Human rhinovirus 14, UniProt P03303); test: Inhibition of rhinovirus 3C protease (FRET assay), serotype 14; assay type: biochemical; conditions: HRV serotype-14 3C protease; progress curves in enzyme start experiments; read-out: Protease Inhibition kobs/[I]
T1 construct: Recombinant rhinovirus 3C proteases; made in house
Description: Stock solutions (50 mM, in DMSO) of various compounds were prepared; dilutions were in the same solvent. Recombinant rhinovirus 3C proteases (see Birch et al., “Purification of recombinant human rhinovirus 14 3C protease expressed in Escherichia coli,” Protein Expr. Pur. 1995, 6(5), 609-618) from serotypes 14, 16, and 2 were prepared by the following standard chromatographic procedures: (1) ion exchange using Q Sepharose Fast Flow from Pharmacia; (2) affinity chromatography using Affi-Gel Blue from Biorad; and (3) sizing using Sephadex G-100 from Pharmacia. Each assay sample contained 2% DMSO, 50 mM tris pH 7.6, 1 mM EDTA, a test compound at the indicated concentration, approximately 1 μM substrate, and 50-100 nM protease. The kobs/I values were obtained from reactions initiated by addition of enzyme rather than substrate. RVP activity was measured in the fluorescence resonance energy transfer assay. The substrate was (N-terminal) DABCYL-(Gly-Arg-Ala-Val-Phe-Gln-Gly-Pro-Val-Gly)-EDANS. In the uncleaved peptide, the EDANS fluorescence was quenched by the proximal DABCYL moiety. When the peptide was cleaved, the quenching was relieved, and activity was measured as an increase in fluorescence signal. In Table 1, all data are for rhinovirus 3C protease from HRV serotype-14 (produced from the infectious cDNA clone constructed by Dr. Robert Rueckert, Institute for Molecular Virology, University of Wisconsin, Madison, Wis.). […] The data in the column designated kobs/[I] were measured from progress curves in enzyme start experiments.

[12] = test system: HRV (89); test: Antirhinoviral H1-HeLa cell culture assay, HRV serotype 89; assay type: cell-based, human rhinovirus; conditions: Human rhinovirus sp., H1-HeLa cells, XTT
Description: as §1, §2, §3, §5

[13] = test system: HRV (9); test: Antirhinoviral H1-HeLa cell culture assay, HRV serotype 9; assay type: cell-based, human rhinovirus; conditions: Human rhinovirus sp., H1-HeLa cells, XTT
Description: as §1, §2, §3, §4

[14] = test system: HRV (2); test: Antirhinoviral H1-HeLa cell culture assay, HRV serotype 2; assay type: cell-based, human rhinovirus; conditions: Human rhinovirus sp., H1-HeLa, H1-HeLa cells, XTT
Description: as §1, §2, §3, §5

[15] = test system: HRV (25); test: Antirhinoviral H1-HeLa cell culture assay, HRV serotype 25; assay type: cell-based; conditions: Human rhinovirus sp., H1-HeLa cells, XTT
Description: as §1
as §2, with “value. […]” for “value.”

[16] = test system: HRV (12); test: Antirhinoviral H1-HeLa cell culture assay, HRV serotype 12; assay type: cell-based; conditions: Human rhinovirus sp., H1-HeLa cells, XTT
Description: as §1
as §2, with “value. […]” for “value.”

[17] = test system: HRV (30); test: Antirhinoviral H1-HeLa cell culture assay, HRV serotype 30; assay type: cell-based; conditions: Human rhinovirus sp., H1-HeLa cells, XTT
Description: as §1
as §2, with “value. […]” for “value.”

[18] = test system: Coxsackievirus type A-21 (CAV-21); test: Anticoxsackieviral cell culture assay, CAV-21; assay type: cell-based; conditions: 48 h
Description: (§6) Coxsackievirus types A-21 (CAV-21) and B3 (CVB-3) were purchased from American Type Culture Collection (ATCC, Rockville, Md.). Virus stocks were propagated and antiviral assays were performed in H1-HeLa cells (ATCC). Cells were grown in minimal essential medium with 10% fetal bovine serum (Life Technologies, Gaithersburg, Md.).
(§7) The ability of compounds to protect cells against either CAV-21 or CVB-3 infection was measured by the XTT dye reduction method. This method is described in Weislow et al., J. Natl. Cancer Inst. 1989, vol. 81, 577-586. H1-HeLa cells were infected with CAV-21 or CVB-3 at a multiplicity of infection (m.o.i.) of 0.025 or 0.075, respectively, or mock-infected with medium only. H1-HeLa cells were plated at 4×10^4 cells per well in a 96-well plate and incubated with appropriate concentrations of the test compound. One day (CVB-3) or two days (CAV-21) later, XTT/PMS was added to test plates and the amount of formazan produced was quantified spectrophotometrically at 450/650 nm. The EC50 was calculated as the concentration of compound that increased the formazan production in compound-treated, virus-infected cells to 50% of that produced by compound-free, uninfected cells. The 50% cytotoxic dose (CC50) was calculated as the concentration of compound that decreased formazan production in compound-treated, uninfected cells to 50% of that produced in compound-free, uninfected cells. The therapeutic index TI) was calculated by dividing the CC50 by the EC50.
(§8) The compounds were tested against control compounds WIN 54954 (obtained from Sterling-Winthrop Pharmaceuticals), Pirodavir (obtained from Janssen Pharmaceuticals), and Pleconaril (prepared according to Diana et al., J. Med. Chem. 1995, 38, 1355).

[19] = test system: Echovirus type 11 (EV 11); test: Anti-echoviral cell culture assay, EV 11; assay type: cell-based; conditions: Enterovirus B, MRC5, 96 h
Description: (§9) Echovirus type 11 (EV 11) and enterovirus type 70 (EV 70) were purchased from ATCC (Rockville, Md.). Virus stocks were propagated and antiviral assays were performed in MRC-5 cells (ATCC). Cells were grown in minimal essential medium with 10% fetal bovine serum (Life Technologies, Gaithersburg, Md.).
(§10) The ability of compounds to protect cells against either EV 11 or EV 70 infection was measured by the XTT dye reduction method (Weislow et al., J. Natl. Cancer Inst. 1989, vol. 81, 577-586). MRC-5 cells were infected with EV 11 or EV 70 at an m.o.i. of 0.003 or 0.004, respectively, or mock-infected with medium only. Infected or uninfected cells were added at 1×10^4 cells per well and incubated with appropriate concentrations of compound. Four days later, XTT/PMS was added to test plates, and the amount of formazan produced was quantified spectrophotometrically at 450/650 nm. The EC50 was calculated as the concentration of compound that increased the formazan production in compound-treated, virus-infected cells to 50% of that produced by compound-free, uninfected cells. The 50% cytotoxic dose (CC50) was calculated as the concentration of compound that decreased formazan production in compound-treated, uninfected cells to 50% of that produced in compound-free, uninfected cells. The therapeutic index (TI) was calculated by dividing the CC50 by the EC50.
The compounds were tested against control compounds Pirodavir (obtained from Janssen Pharmaceuticals) and Pleconaril (prepared according to Diana et al., J. Med. Chem. 1995, vol. 38, 1355). Antiviral data obtained for the test compounds against strain EV 11 and EV 70 are shown below in Table 5.

[20] = test system: Coxsackievirus type B3 (CVB-3); test: Anticoxsackieviral cell culture assay, CVB-3; assay type: cell-based; conditions: 24 h
Description: as §6, §7, §8

[21] = test system: enterovirus type 70 (EV 70); test: Anti-enteroviral cell culture assay, EV 70; assay type: cell-based; conditions: Enterovirus D, MRC5, 96 h; Strain EV-70; MRC-5 cells; four days; XTT
Description: as §9
as §10, with “EC50. […]” for “EC50.”

T1 sequence (P03303 1538-1719): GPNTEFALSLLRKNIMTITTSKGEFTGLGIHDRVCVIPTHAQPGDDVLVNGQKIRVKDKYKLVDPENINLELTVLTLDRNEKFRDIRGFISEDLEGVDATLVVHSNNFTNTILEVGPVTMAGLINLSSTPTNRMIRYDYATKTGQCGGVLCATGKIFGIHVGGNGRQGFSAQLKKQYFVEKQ

SMILES: CCOC(=O)/C=C/[C@H](C[C@@H]1CCNC1=O)NC(=O)[C@H](Cc1ccc(F)cc1)OC(=O)[C@@H](NC(=O)c1cc(C)on1)C(C)C [Compound C-2, Ethyl-3-{(5′-Methylisoxazole-3′-carbonyl)-L-Val-O-L-(4-F-Phe)-L-((S)-Pyrrol-Ala)}-E-Propenoate]
- EC50 [1]: 10 nM
- EC50 [2]: 20 nM
- EC50 [3]: 50 nM
- EC50 [4]: 7 nM
- EC50 [5]: 10 nM
- EC50 ([6]; Table 1, XTT dye reduction, read-out: Cell Protection EC50): 2 nM
- EC50 ([6]; Table 3, XTT, read-out: EC50): 2 nM
- EC50 [7]: 7 nM
- EC50 [8]: 20 nM
- EC50 [9]: 10 nM
- EC50 [10]: 20 nM
- kinact/KI [11]: 270000 M⁻¹ s⁻¹
- EC50 [12]: 4 nM
- EC50 [13]: 10 nM
- EC50 [14]: 4 nM
- EC50 [15]: 70 nM
- EC50 [16]: 40 nM
- EC50 [17]: 30 nM

SMILES: CCOC(=O)c1ccc(OCCC2CCN(c3ccc(C)nn3)CC2)cc1 [Pirodavir, reference compound]
- EC50 ([18]; Strain CAV-21, H1-HeLa cells, two days, XTT, read-out: EC50): > 100000 nM
- EC50 ([6]; Table 3, XTT, read-out: EC50): 30 nM
- EC50 ([19]; Strain EV-11, MRC-5 cells, four days, XTT, read-out: EC50): 3700 nM
- EC50 ([20]; Strain CVB-3, H1-HeLa cells, one day, XTT, read-out: EC50): > 100000 nM
- EC50 [21]: 60 nM

SMILES: Cc1cc(CCCOc2c(C)cc(-c3noc(C(F)(F)F)n3)cc2C)on1 [Pleconaril, reference compound]
- EC50 ([18]; H1-HeLa): 90 nM
- EC50 ([6]; Table 3, XTT, read-out: EC50): 10 nM
- EC50 [19]: 160 nM
- EC50 ([20]; H1-HeLa): > 10000 nM
